# Test results: PubChem BioAssay AID1259408 (Genetic Toxicology Data Bank (GENE-TOX), 2018)
# Calls of active or inactive are those of the source. The rule behind the calls is not given here.
# Test system: GENE-TOX genotoxicity assays, various organisms and cells
# Assay: GENE-TOX mutagenicity studies
# Settings: for call: Assay Type: In vivo carcinogenicity studies, Assay Code: CCG+
# [1] = Species/Cell Type: Escherichia coli polA (W3119 vs P3478), Assay Type: Rec-assay, DNA effects (bacterial DNA repair), Assay Code: RE1+, Evaluation Type: Evaluation A (Pre-1980)
# [2] = Species/Cell Type: Mouse, Sex: Male, Assay Type: Sperm morphology, Assay Code: SPI-, Evaluation Type: Evaluation A (Pre-1980)
# [3] = Species/Cell Type: Nonhuman, Evaluation Type: Evaluation A (Pre-1980)
# [4] = Species/Cell Type: Nonhuman, Assay Type: Sister-chromatid exchange (SCE) in vitro, Assay Code: SC2+D, Dose Response: With dose response, Evaluation Type: Evaluation B (Post-1980)
# [5] = Species/Cell Type: Salmonella typhimurium (one or more of the five standard strains: TA98, TA100, TA1535, TA1537, and TA1538), Assay Type: Histidine reverse gene mutation, Ames assay, Assay Code: SAL+, Evaluation Type: Evaluation A (Pre-1980)
# [6] = Species/Cell Type: Bacillus subtilis (H17 vs M45), Assay Type: Rec-assay, spot test, DNA effects (bacterial DNA repair), Assay Code: REW-, Evaluation Type: Evaluation A (Pre-1980)
# [7] = Species/Cell Type: Drosophila melanogaster, Assay Type: Sex-linked recessive lethal gene mutation, Assay Code: SRLT, Evaluation Type: Evaluation A (Pre-1980)
# [8] = Species/Cell Type: Salmonella typhimurium (one or more of the five standard strains: TA98, TA100, TA1535, TA1537, and TA1538), Assay Type: Histidine reverse gene mutation, Ames assay, Assay Code: SAL+*, Activation: With metabolic activation, Evaluation Type: Evaluation A (Pre-1980)
# [9] = Species/Cell Type: Human lymphocytes, Assay Type: Sister-chromatid exchange (SCE) in vitro, Assay Code: SCLT, Evaluation Type: Evaluation B (Post-1980)
# [10] = Species/Cell Type: Human, Assay Type: Sister-chromatid exchange (SCE) in vitro, Assay Code: SC1T, Evaluation Type: Evaluation B (Post-1980)
# [11] = Species/Cell Type: Bacillus subtilis (H17 vs M45), Assay Type: Rec-assay, spot test, DNA effects (bacterial DNA repair), Assay Code: REWT, Evaluation Type: Evaluation A (Pre-1980)
# [12] = Species/Cell Type: Mammalian polychromatic erythrocytes, Assay Type: Micronucleus test, chromosome aberrations, Assay Code: MNT+U, Dose Response: Unconfirmed positive response, Evaluation Type: Evaluation B (Post-1980)
compound,measurement,setting,value
ClCC1CO1 (stereo unspecified),mutagenic call,"Species/Cell Type: Drosophila melanogaster, Assay Type: Sex-linked recessive lethal gene mutation, Assay Code: SRL+, Evaluation Type: Evaluation A (Pre-1980)",active; positive
same,mutagenic call,[1],active; positive
same,mutagenic call,"Species/Cell Type: Human lymphocytes or leukocytes, Assay Type: Chromosome aberrations in vitro, Assay Code: CY7+, Evaluation Type: Evaluation A (Pre-1980)",active; positive
same,mutagenic call,"Species/Cell Type: Human lymphocytes or leukocytes, Assay Type: Chromosome aberrations in vivo, Assay Code: CY8+, Evaluation Type: Evaluation A (Pre-1980)",active; positive
same,mutagenic call,"Species/Cell Type: Human lymphocytes, Assay Type: Sister-chromatid exchange (SCE) in vitro, Assay Code: SCL+D, Dose Response: With dose response, Evaluation Type: Evaluation B (Post-1980)",active; positive
same,mutagenic call,"Species/Cell Type: Human, Assay Type: Sister-chromatid exchange (SCE) in vitro, Assay Code: SC1+D, Dose Response: With dose response, Evaluation Type: Evaluation B (Post-1980)",active; positive
same,mutagenic call,"Species/Cell Type: Human, Sex: Male, Assay Type: Sperm morphology, Assay Code: SPH-, Evaluation Type: Evaluation A (Pre-1980)",inactive; negative
same,mutagenic call,"Species/Cell Type: Mammalian polychromatic erythrocytes, Assay Type: Micronucleus test, chromosome aberrations, Assay Code: MNTT, Evaluation Type: Evaluation A (Pre-1980)",no conclusion
same,mutagenic call,[2],inactive; negative
same,mutagenic call,"Species/Cell Type: Neurospora crassa, Assay Type: Forward gene mutation, Assay Code: NEF+, Evaluation Type: Evaluation A (Pre-1980)",active; positive
same,mutagenic call,"Species/Cell Type: Neurospora crassa, Assay Type: Reverse gene mutation, Assay Code: NER+, Evaluation Type: Evaluation A (Pre-1980)",active; positive
same,call,[3],active; positive
same,mutagenic call,[4],active; positive
same,mutagenic call,[5],active; positive
same,mutagenic call,"Species/Cell Type: Schizosaccharomyces pombe, Assay Type: Forward gene mutation, Assay Code: YEY+, Evaluation Type: Evaluation A (Pre-1980)",active; positive
same,mutagenic call,"Species/Cell Type: Schizosaccharomyces pombe, Assay Type: Reverse gene mutation, Assay Code: YEZ+, Evaluation Type: Evaluation A (Pre-1980)",active; positive
c1c(N2CC2)nc(N2CC2)nc1N1CC1,mutagenic call,"Species/Cell Type: Aspergillus nidulans, Assay Type: Reverse gene mutation, Assay Code: ASR+, Evaluation Type: Evaluation A (Pre-1980)",active; positive
COCC(O)Cn1ccnc1[N+](=O)[O-] (stereo unspecified),mutagenic call,"Species/Cell Type: Escherichia coli WP2 UVRA, Assay Type: Tryptophan reverse gene mutation, Assay Code: WPU+D, Dose Response: With dose response, Evaluation Type: Evaluation A (Pre-1980)",active; positive
same,mutagenic call,"Species/Cell Type: Mouse (C3H/10T1/2) cells, Assay Type: Cell transformation, Assay Code: CTH+D, Dose Response: With dose response, Evaluation Type: Evaluation A (Pre-1980)",active; positive
same,mutagenic call,[4],active; positive
same,mutagenic call,"Species/Cell Type: Nonhuman, Assay Type: Sister-chromatid exchange (SCE) in vivo, Assay Code: SC3T, Evaluation Type: Evaluation B (Post-1980)",no conclusion
same,mutagenic call,[5],active; positive
O=C1C2(Cl)C3(Cl)C4(Cl)C(Cl)(Cl)C5(Cl)C3(Cl)C1(Cl)C5(Cl)C24Cl (stereo unspecified),mutagenic call,"Species/Cell Type: Human, Sex: Male, Assay Type: Sperm morphology, Assay Code: SPHT, Evaluation Type: Evaluation A (Pre-1980)",no conclusion
same,call,[3],active; positive
Nc1ccc(N=Nc2ccccc2)c(N)n1,call,[3],active; positive
CCN(CC)C(=O)OC1(SC)C(=O)c2ccccc2C1=O,mutagenic call,"Species/Cell Type: Salmonella typhimurium, Assay Type: Forward and reverse gene mutation, host-mediated assay, Assay Code: HMA+, Evaluation Type: Evaluation A (Pre-1980)",active; positive
OCCBr,mutagenic call,[1],active; positive
same,mutagenic call,[2],inactive; negative
same,mutagenic call,[5],active; positive
same,mutagenic call,"Species/Cell Type: Tradescantia species, Assay Type: Gene mutation, Assay Code: TRM+D, Dose Response: With dose response, Evaluation Type: Evaluation A (Pre-1980)",active; positive
N=c1ccc2nc3ccc(N)cc3sc-2c1,mutagenic call,[6],inactive; negative
same,mutagenic call,[7],no conclusion
same,mutagenic call,"Species/Cell Type: Saccharomyces cerevisiae, Assay Type: Mitotic recombination or gene conversion, Assay Code: YECT, Evaluation Type: Evaluation A (Pre-1980)",no conclusion
Cc1cc2cc3ccccc3cc2c2ccccc12,mutagenic call,[4],active; positive
same,mutagenic call,[8],active; positive
CCC(Cc1c(I)cc(I)c(N)c1I)C(=O)O (stereo unspecified),mutagenic call,[9],no conclusion
same,mutagenic call,[10],no conclusion
CC(=O)OCCCCCCBr,mutagenic call,"Species/Cell Type: Mammalian polychromatic erythrocytes, Assay Type: Micronucleus test, chromosome aberrations, Assay Code: MNTT, Evaluation Type: Evaluation B (Post-1980)",no conclusion
CNC(=O)Oc1cc(C)cc(C)c1,mutagenic call,"Species/Cell Type: Bacillus subtilis (H17 vs M45T), Assay Type: Rec-assay, spot test, DNA effects (bacterial DNA repair), Assay Code: REX-, Evaluation Type: Evaluation A (Pre-1980)",inactive; negative
same,mutagenic call,"Species/Cell Type: Escherichia coli WP2, Assay Type: Tryptophan reverse gene mutation, Assay Code: WP2-, Evaluation Type: Evaluation A (Pre-1980)",inactive; negative
c1ccc2c(c1)ccc1nc3c(ccc4ccccc43)nc12,mutagenic call,[7],no conclusion
CC(=O)Oc1c(Cl)c(Cl)c(Cl)c(Cl)c1Cl,mutagenic call,[11],no conclusion
C/C=C/C1=CN2C(=O)c3cc(O[C@@H]4O[C@@H](C)[C@H](NC)[C@@](C)(O)[C@H]4O)c(C)c(O)c3N[C@H](O)[C@@H]2C1,mutagenic call,[12],active; positive
CC(=O)O[C@H]1C[C@@H]2CC[C@@H]3[C@H](CC[C@@]4(C)[C@H]3C[C@H]([N+]3(C)CCCCC3)[C@@H]4OC(C)=O)[C@@]2(C)C[C@@H]1[N+]1(C)CCCCC1,mutagenic call,"Species/Cell Type: Salmonella typhimurium (one or more of the five standard strains: TA98, TA100, TA1535, TA1537, and TA1538), Assay Type: Histidine reverse gene mutation, Ames assay, Assay Code: SALT, Evaluation Type: Evaluation A (Pre-1980)",no conclusion
CC1CCCCC1NC(=O)Nc1ccccc1 (stereo unspecified),mutagenic call,[11],no conclusion
same,mutagenic call,"Species/Cell Type: Drosophila melanogaster, Assay Type: Sex-linked recessive lethal gene mutation, Assay Code: SRL-, Evaluation Type: Evaluation A (Pre-1980)",inactive; negative
same,mutagenic call,"Species/Cell Type: Escherichia coli WP2 UVRA, Assay Type: Tryptophan reverse gene mutation, Assay Code: WPU-*, Activation: With metabolic activation, Evaluation Type: Evaluation A (Pre-1980)",inactive; negative
same,mutagenic call,"Species/Cell Type: Escherichia coli polA (W3119 vs P3478), Assay Type: Rec-assay, DNA effects (bacterial DNA repair), Assay Code: RE1T, Evaluation Type: Evaluation A (Pre-1980)",no conclusion
same,mutagenic call,"Species/Cell Type: Human diploid fibroblasts, Assay Type: Unscheduled DNA synthesis (UDS) in vitro, DNA effects, Assay Code: UDH-, Evaluation Type: Evaluation A (Pre-1980)",inactive; negative
same,mutagenic call,"Species/Cell Type: Saccharomyces cerevisiae, Assay Type: Mitotic recombination or gene conversion, Assay Code: YEH-, Evaluation Type: Evaluation A (Pre-1980)",inactive; negative
same,mutagenic call,"Species/Cell Type: Salmonella typhimurium (one or more of the five standard strains: TA98, TA100, TA1535, TA1537, and TA1538), Assay Type: Histidine reverse gene mutation, Ames assay, Assay Code: SAL-, Evaluation Type: Evaluation A (Pre-1980)",inactive; negative
COc1cc(O)c2c(c1)C(=O)c1cc(C)cc(O)c1C2=O,mutagenic call,[8],active; positive
Cc1cc2nc3c(cc(N)c4ccccc43)oc-2cc1=[N+](C)C,mutagenic call,[6],inactive; negative
CCBr,mutagenic call,[7],no conclusion
NCCc1ccc(O)c(O)c1,mutagenic call,"Species/Cell Type: Human lymphocytes, Assay Type: Sister-chromatid exchange (SCE) in vitro, Assay Code: SCL-, Evaluation Type: Evaluation B (Post-1980)",inactive; negative
same,mutagenic call,"Species/Cell Type: Human, Assay Type: Sister-chromatid exchange (SCE) in vitro, Assay Code: SC1-, Evaluation Type: Evaluation B (Post-1980)",inactive; negative
same,mutagenic call,"Species/Cell Type: Mammalian polychromatic erythrocytes, Assay Type: Micronucleus test, chromosome aberrations, Assay Code: MNT-, Evaluation Type: Evaluation B (Post-1980)",inactive; negative
COc1cc(C(=O)CCN2CCCCC2)ccc1O,mutagenic call,"Species/Cell Type: Salmonella typhimurium, Assay Type: Forward and reverse gene mutation, host-mediated assay, Assay Code: HMA-, Evaluation Type: Evaluation A (Pre-1980)",inactive; negative
CCCCCCCCCCCCCCCCCC(=O)O,mutagenic call,"Species/Cell Type: Escherichia coli polA (W3119 vs P3478), Assay Type: Rec-assay, DNA effects (bacterial DNA repair), Assay Code: RE1-, Evaluation Type: Evaluation A (Pre-1980)",inactive; negative
COc1cc(CNC(=O)CCCC/C=C/C(C)C)ccc1O,mutagenic call,[12],active; positive
NC(=O)N1c2ccccc2C=Cc2ccc(O)cc21,mutagenic call,[9],no conclusion
same,mutagenic call,[10],no conclusion
CS(=O)(=O)OCC(O)C(O)COS(C)(=O)=O (stereo unspecified),mutagenic call,"Species/Cell Type: Allium cepa, Assay Type: Chromosome aberrations, Assay Code: ALCT, Evaluation Type: Evaluation A (Pre-1980)",no conclusion
same,mutagenic call,"Species/Cell Type: Arabidopsis species, Assay Type: Gene mutation, Assay Code: ARM+, Evaluation Type: Evaluation A (Pre-1980)",active; positive
same,mutagenic call,"Species/Cell Type: Vicia faba, Assay Type: Chromosome aberrations, Assay Code: VIC+D, Dose Response: With dose response, Evaluation Type: Evaluation A (Pre-1980)",active; positive
Cc1c2ccccc2cc2c3c(ccc12)C=CC(O)C3O (stereo unspecified),mutagenic call,[8],active; positive
